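Interpolation was linear, between the two tested concentrations surrounding the appropriate level; five concentrations were tested over 48 hours in 96-well plates. GI50: concentration for 50% inhibition of growth. TGI denotes the concentration required for complete inhibition of growth.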
Assays:
Assay in all cases: inhibition of tumour cell growth, NCI panel, 48 h
[1] = test system: UACC-62 melanoma
[2] = test system: HS 578T breast
[3] = test system: NCI-H226 lung
[4] = test system: HL-60(TB) leukemia
[5] = test system: SK-MEL-5 melanoma
[6] = test system: MDA-MB-231 breast
[7] = test system: HT29 colon
[8] = test system: IGROV1 ovarian
[9] = test system: U251 CNS
[10] = test system: MCF7 breast

Structure (SMILES)	GI50 [1]	TGI [1]	GI50 [2]	TGI [2]	GI50 [3]	TGI [3]	GI50 [4]	TGI [4]	GI50 [5]	TGI [5]	GI50 [6]	TGI [6]	GI50 [7]	TGI [7]	TGI [8]	GI50 [9]	TGI [9]	GI50 [10]	TGI [10]	GI50 [8]
COc1ccc(C(=O)COc2cccc(/C=C3\CSc4ccc(Cl)cc4C3=O)c2)cc1	6.23 µM	21 µM	3.55 µM	31.7 µM	14.4 µM	62.8 µM	2.18 µM	7.21 µM	3.93 µM	18.5 µM	14.2 µM	64.3 µM	3.32 µM	11.4 µM	11.6 µM	2.13 µM	4.59 µM	1.5 µM	11.3 µM	–
COc1cc(NCc2ccccc2O)c2ncccc2c1	11.2 µM	53.1 µM	24.2 µM	> 100 µM	20.8 µM	> 100 µM	18.5 µM	57 µM	10.1 µM	23.4 µM	14.3 µM	> 100 µM	19.4 µM	94.1 µM	56.2 µM	23.7 µM	> 100 µM	24.4 µM	> 100 µM	13.7 µM
O=C(Nc1cccc(O)c1)c1cccc(NC2=C(Cl)C(=O)N(Cc3ccccc3)C2=O)c1	14.6 µM	28.1 µM	12.7 µM	43.5 µM	18.7 µM	44.4 µM	4.88 µM	27.9 µM	6.09 µM	20.1 µM	11.9 µM	31.9 µM	22.2 µM	49.7 µM	6.11 µM	13.7 µM	26.6 µM	23.4 µM	59.9 µM	1.19 µM
CO[C@@]12C[C@H]3[C@@H]([C@@H](O)[C@@H](OC(=O)/C=C/c4ccccc4)[C@@]4(O)C(C)(C)CCC[C@]34C)[C@@H](C)C1=CC(=O)O2	1.55 µM	5.62 µM	7.8 µM	29.3 µM	4.76 µM	18.8 µM	11.1 µM	> 100 µM	4.55 µM	18.3 µM	0.585 µM	4.6 µM	4.6 µM	26.5 µM	> 100 µM	3.29 µM	13.7 µM	8.68 µM	> 100 µM	29.5 µM
O=S(=O)(O)/C(=C\c1ccccc1)c1ccccc1 (tested in a mixture with another compound)	–	> 100 µM	–	> 100 µM	–	> 100 µM	–	> 100 µM	–	> 100 µM	–	> 100 µM	–	> 100 µM	> 100 µM	–	> 100 µM	–	> 100 µM	–
COC(=O)OCc1ccc2c(c1)C(=O)c1c-2n(CCCBr)c(=O)c2cc([N+](=O)[O-])ccc12	33.5 µM	> 100 µM	31 µM	> 100 µM	> 100 µM	> 100 µM	70.2 µM	> 100 µM	> 100 µM	> 100 µM	52.7 µM	> 100 µM	> 100 µM	> 100 µM	> 100 µM	35.3 µM	> 100 µM	> 100 µM	> 100 µM	54.3 µM
CCOc1ccc2ccc3cccnc3c2n1	–	75.9 µM	–	> 100 µM	–	> 100 µM	–	> 100 µM	–	> 100 µM	–	> 100 µM	–	> 100 µM	> 100 µM	–	> 100 µM	–	45.8 µM	–
NC(Cc1ccnnc1)C(=O)O (centres undefined)	–	> 100 µM	–	> 100 µM	–	> 100 µM	–	> 100 µM	–	> 100 µM	–	> 100 µM	–	> 100 µM	> 100 µM	–	> 100 µM	–	> 100 µM	–
O=C(Nc1ccccc1O)c1ccc(CNC(=O)c2sccc2Nc2ccnc(C(F)(F)F)c2)cc1	4.13 µM	20 µM	12.7 µM	> 100 µM	8.07 µM	45 µM	6.27 µM	44.8 µM	1.94 µM	4.7 µM	9.05 µM	27.4 µM	6.21 µM	27 µM	32.7 µM	5.44 µM	20.8 µM	2.65 µM	41.8 µM	14 µM
COc1ccc(/C=C(/C)[N+](=O)[O-])cc1	–	3.29 µM	–	27.3 µM	–	39.7 µM	–	> 21.8 µM	–	5.92 µM	–	9.89 µM	–	11.9 µM	6.2 µM	–	3.05 µM	–	2.51 µM	–
CC(C)(C)[Si](C)(C)OCC1C=CC(n2cnc3c(N)ncnc32)O1 (centres undefined)	–	> 69.5 µM	–	> 100 µM	–	> 69.6 µM	–	40.3 µM	–	34.1 µM	–	> 73.6 µM	–	> 100 µM	> 100 µM	–	72.3 µM	–	> 75.4 µM	–
CC(=O)OC1CCC2(C)C(=CCC3C4CCC5(OC6CC(C)CN(C(C)=O)C6C5C)C(C)=C4C(=O)C32)C1 (centres undefined)	–	18.5 µM	–	31.4 µM	–	45.8 µM	–	> 100 µM	–	21.9 µM	–	33.3 µM	–	43.8 µM	29.1 µM	–	30.8 µM	–	26.4 µM	–
Cc1cc(C)c2c(SCc3ccc(Cl)cc3Cl)nc(N)nc2n1	–	> 100 µM	–	> 100 µM	–	> 100 µM	–	> 100 µM	–	> 100 µM	–	> 100 µM	–	> 100 µM	> 100 µM	–	> 100 µM	–	> 100 µM	–
C/C1=C/C(=O)O[C@@H]2C[C@@H](CC[C@H](C)/C=C\C=C\CC1)O[C@@](OCCc1ccccc1)([C@@H]1CSC(=O)N1)C2	0.104 µM	> 17.5 µM	0.028 µM	0.0973 µM	0.0985 µM	> 17.5 µM	1.31 µM	> 17.5 µM	0.226 µM	> 6.42 µM	0.0949 µM	> 17.5 µM	0.0793 µM	> 15 µM	0.074 µM	0.189 µM	> 17.5 µM	5.37 µM	> 17.5 µM	0.0275 µM
COc1cc(NCC2COc3c(ccc(OC)c3OC)C2=O)c([N+](=O)[O-])cc1OC (centres undefined)	–	> 100 µM	–	> 100 µM	–	> 100 µM	–	> 100 µM	–	> 100 µM	–	> 100 µM	–	> 100 µM	> 100 µM	–	> 100 µM	–	> 100 µM	–
C/C1=C\C/C=C(\C)[C@H]2CC(CC/C(C)=C/CC1)[C@](C)(C=O)O2	> 100 µM	> 100 µM	> 100 µM	> 100 µM	> 100 µM	> 100 µM	25.6 µM	81.2 µM	77.1 µM	> 100 µM	> 100 µM	> 100 µM	> 100 µM	> 100 µM	> 100 µM	43.9 µM	> 100 µM	38.2 µM	87.8 µM	18.2 µM

From PubChem BioAssay (NCI)
